Key:
[1] = tested on: IL-12-yellow fluorescent protein (YFP) reporter mouse bone marrow dendritic cells; assay: IL-12-YFP reporter dendritic cells, flow cytometric analysis; format: cell-based; details: stimulated 24 hours with LPS or Pam3Cys ± 1 μg/ml MDP
Method: FIGS. 2(A)-(C) are graphs illustrating the effects of compound A3 on cytokine production by dendritic cells.
(§1) IL-12-yellow fluorescent protein (YFP) reporter mouse bone marrow dendritic cells were stimulated for 24 hours with 0.3 ng/ml LPS±1 μg/ml MDP (i.e., NOD2 agonist) in the presence of Example A3 (FIG. 2A). IL-12-yellow fluorescent protein (YFP) reporter mouse bone marrow dendritic cells were stimulated for 24 hours with 0.3 μg/ml Pam3Cys±1 μg/ml MDP (i.e., NOD2 agonist) in the presence of Example A3 (FIG. 2B). […] Data are represented as the mean±SEM of triplicate measurements. Levels of IL-12 p70 (FIG. 2C, left panel) and TNFα (FIG. 2C, right panel) in the cell culture supernatants from A were measured by ELISA techniques with commercially available kits. […] Data are represented as the mean±SEM of triplicate measurements.

[2] = tested on: TNFα; assay: TNFα in dendritic cell culture supernatants by ELISA; format: cell-based, mouse; details: 0.3 ng/ml LPS ± 1 μg/ml MDP, 24 hours
Method: as §1

[3] = tested on: mouse bone marrow dendritic cells; assay: Dendritic cell viability by 7AAD exclusion; format: cell-based; details: stimulated 24 hours with LPS or Pam3Cys ± 1 μg/ml MDP
Method: as §1

[4] = tested on: IL-12 p70; assay: IL-12 p70 in dendritic cell culture supernatants by ELISA; format: cell-based, mouse; details: 0.3 ng/ml LPS ± 1 μg/ml MDP, 24 hours
Method: as §1

[5] = tested on: HT-29 colon cancer cells; assay: Sulforhodamine B cell growth inhibition assay; format: cell-based; details: Homo sapiens, HT-29, 120 h; 5 days, SRB; read-out: Colon GI50 range HT29
Method: (§2) Breast cancer cells (MDA-MB-231 and MDA-MB-468), colon cancer cells (HCT116 and HT-29) and ovarian cancer cells (SKOV-3 and OVCAR-3) were seeded (1000 to 4000 in 80 μL per well depending on the cell growth rate) into 96 well plates 24 hours before compound overlay. Compounds were prepared as 10 mM stock solutions in 100% DMSO which were diluted with DMEM (Dulbecco's Modified Eagle's Medium) cell growth Medium (Invitrogen, Burlington, ON, Canada) containing 10% FBS (Fetal Bovine Serum) to concentrations ranging from 50 nM to 250 μM. Aliquots (20 μL) from each concentration were overlaid to 80 μL of the pre-seeded cells in the 96 well plates to make final concentrations of 10 nM to 50 μM. The cells were cultured for 5 days before the Sulforhodamine B assay (SRB) was performed to determine the compound's cell growth inhibition activity.
(§3) The cells are fixed in situ by gently aspirating off the culture media and adding 50 μL ice cold 10% trichloroacetic acid per well and incubate at 4° C. for 30-60 min. The plates are washed with H2O five times and allowed to air dry for 5 min. Addition of 50 μL 0.4% (w/v) SRB solution in 1% (v/v) acetic acid to each well and incubation for 30 min at rt completes the staining reaction. Following staining, plates are washed four times with 1% acetic acid to remove unbound dye and then allowed to air dry for 5 min. The stain is solubilized with 100 μL of 10 mM Tris pH 10.5 per well. Absorbance is read at 570 nm. The percentage (%) of relative growth inhibition was calculated by comparing to DMSO treated only cells (100%). GI50's were determined for compounds with cytotoxic activity. The GI50 was calculated using GraphPad PRISM software (GraphPad Software, Inc., San Diego, Calif., USA). GI50 (growth inhibition) is the compound concentration that causes 50% inhibition of cell growth.
(§4) In Table 2 lists GI50 value ranges for compound examples against breast cancer cell lines (MDA-MB-231, MDA-MB-468), colon cancer cell lines (HCT116, HT-29) and ovarian cancer cell lines (OVCAR-3, SKOV-3) are given. […] The GI50 ranges are indicated as “A,” “B,” and “C,” for values less than or equal to 1 μM; those greater than 1 μM and less than or equal to 10 μM; and those greater than 10 μM, respectively.

[6] = tested on: MDA-MB-231 breast cancer cells; assay: Sulforhodamine B cell growth inhibition assay; format: cell-based; details: Homo sapiens, MDA-MB-231, 120 h; 5 days, SRB; read-out: Breast GI50 range MDA-MB-231
Method: as §2, §3, §4

[7] = tested on: MDA-MB-468 breast cancer cells; assay: Sulforhodamine B cell growth inhibition assay; format: cell-based; details: Homo sapiens, MDA-MB-468, 120 h; 5 days, SRB; read-out: Breast GI50 range MDA-MB-468
Method: as §2, §3, §4

[8] = tested on: OVCAR-3 ovarian cancer cells; assay: Sulforhodamine B cell growth inhibition assay; format: cell-based; details: Homo sapiens, OVCAR-3, 120 h; 5 days, SRB; read-out: Ovarian GI50 range OVCAR-3
Method: as §2, §3, §4

[9] = tested on: HCT116 colon cancer cells; assay: Sulforhodamine B cell growth inhibition assay; format: cell-based; details: Homo sapiens, HCT-116, 120 h; 5 days, SRB; read-out: Colon GI50 range HCT116
Method: as §2, §3, §4

[10] = tested on: SKOV-3 ovarian cancer cells; assay: Sulforhodamine B cell growth inhibition assay; format: cell-based; details: Homo sapiens, SK-OV-3, 120 h; 5 days, SRB; read-out: Ovarian GI50 range SKOV-3
Method: as §2, §3, §4

[11] = molecular target: human RIPK2 kinase (Homo sapiens (Human), UniProt O43353); assay: RIPK2 inhibition assay (indirect ELISA); format: biochemical; details: His-RIPK2 0.6 nM, 6 μM ATP; read-out: RIPK2 IC50 range
Sequence of human RIPK2 kinase (O43353 1-299): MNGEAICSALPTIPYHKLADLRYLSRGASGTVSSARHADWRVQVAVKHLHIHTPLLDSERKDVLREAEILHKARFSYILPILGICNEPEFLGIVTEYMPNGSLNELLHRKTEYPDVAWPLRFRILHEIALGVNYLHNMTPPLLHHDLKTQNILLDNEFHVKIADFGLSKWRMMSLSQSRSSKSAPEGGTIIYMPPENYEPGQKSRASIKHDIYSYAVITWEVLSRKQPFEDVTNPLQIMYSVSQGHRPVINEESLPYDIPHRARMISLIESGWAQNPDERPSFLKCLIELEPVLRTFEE
Method: Active RIPK2 was purchased from Life Technologies as His-tagged of catalityc domain (amin acids 1-299) of human RIPK2 kinase expressed in insect cells. Amino terminal 6 histidine, sumo tagged human TTK (residues 1-275) was expressed in E. coli, and purified to >95% homogeneity by Ni^2+ agarose, gel filtration, and ion exchange chromatography.
RIPK2 activity was measured using an indirect ELISA detection system. His—RIPK2 (0.6 nM) was incubated in the presence of 6 μM ATP (Sigma cat # A7699), 20 mM Hepes, pH 7.5, 1 mM EGTA, 2.5 mM MgCl2, 2.5 mM MnCl2 and 0.01% Triton X-100 in a 96 well microtitre plate pre-coated with amino terminal 6 histidine, sumo tagged TTK (amino acid residues 1-275). The reaction was allowed to proceed for 30 minutes, followed by 5 washes of the plate with Wash Buffer (phosphate buffered saline supplemented with 0.2% Tween 20), and incubation for 30 minutes with a 1:3000 dilution of primary antibody (Cell Signaling cat #9381). The plate was washed 5 times with Wash Buffer, incubated for 30 minutes in the presence of secondary antibody coupled to horse radish peroxidase (BioRad cat #1721019, 1:3000 concentration), washed an additional 5 times with Wash Buffer, and incubated in the presence of TMB substrate (Sigma cat # T0440). The colorimetric reaction was allowed to continue for 5 minutes, followed by addition of stop solution (0.5 N H2SO4), and quantified by detection at 450 nm with either a monoChromatic or filter based plate reader (Molecular Devices M5 or Beckman DTX880, respectively).
Compound inhibition was determined at either a fixed concentration (10 μM) or at a variable inhibitor concentration (typically 50 μM to 0.1 μM in a 10 point dose response titration). Compounds were pre-incubated in the presence of enzyme for 15 minutes prior to addition of ATP and the activity remaining quantified using the above described activity assay. The % Inhibition of a compound was determined using the following formula; % Inhibition=100×(1−(experimental value−background value)/(high activity control−background value)). The IC50 value was determined using a non-linear 4 point logistic curve fit (XLfit4, IDBS) with the formula; (A+(B/(1+((x/C)^D)))), where A=background value, B=range, C=inflection point, D=curve fit parameter.

Cc1ccccc1-c1cc2nc(Nc3cccc(N4CCOCC4)c3)ncc2[nH]1 [Example A3, N-(3-morpholinophenyl)-6-(o-tolyl)-5H-pyrrolo[3,2-d]pyrimidin-2-amine]
percentage of YFP positive cells (percentage of IL-12 positive cells) [1]: minimal effect
mean fluorescence intensity YFP (amount of IL-12) ([1]; MDP-dependent): dose-dependent reduction
levels of TNFα in cell culture supernatants [2]: dose-dependent reduction
cell viability as assessed by 7AAD exclusion [3]: no measurable effect
levels of IL-12 p70 in cell culture supernatants [4]: dose-dependent reduction
GI50 [5]: ≤ 1000 nM
GI50 [6]: ≤ 1000 nM
GI50 [7]: ≤ 1000 nM
GI50 [8]: ≤ 1000 nM
GI50 [9]: ≤ 1000 nM
GI50 [10]: ≤ 1000 nM
IC50 [11]: ≤ 100 nM

Cc1cccc(C)c1-c1cc2nc(Nc3cccc(N4CCOCC4)c3)ncc2[nH]1 [Example A12, 6-(2,6-dimethylphenyl)-N-(3-morpholinophenyl)-5H-pyrrolo[3,2-d]pyrimidin-2-amine]
GI50 [5]: 1000 to 10000 nM
GI50 [6]: 1000 to 10000 nM
GI50 [7]: 1000 to 10000 nM
GI50 [8]: ≤ 1000 nM
GI50 [9]: 1000 to 10000 nM
GI50 [10]: ≤ 1000 nM
IC50 [11]: ≤ 100 nM

Cc1ccccc1-c1cc2nc(Nc3ccc(OC4CCN(C)CC4)cc3)ncc2[nH]1 [Example A2, N-(4-((1-methylpiperidin-4-yl)oxy)phenyl)-6-(o-tolyl)-5H-pyrrolo[3,2-d] pyrimidin-2-amine]
GI50 [5]: 1000 to 10000 nM
GI50 [6]: 1000 to 10000 nM
GI50 [7]: 1000 to 10000 nM
GI50 [8]: 1000 to 10000 nM
GI50 [9]: 1000 to 10000 nM
GI50 [10]: 1000 to 10000 nM
IC50 [11]: ≤ 100 nM

Cc1ccccc1-c1cc2nc(Nc3cccc(N4CCN(C)CC4)c3)ncc2[nH]1 [Example A4, N-(3-(4-methylpiperazin-1-yl)phenyl)-6-(o-tolyl)-5H-pyrrolo[3,2-d]pyrimidin-2-amine]
GI50 [5]: ≤ 1000 nM
GI50 [6]: ≤ 1000 nM
GI50 [7]: ≤ 1000 nM
GI50 [8]: ≤ 1000 nM
GI50 [9]: ≤ 1000 nM
GI50 [10]: 1000 to 10000 nM
IC50 [11]: ≤ 100 nM

Reference: patent US10239881B2, “RIPK2 inhibitors and method of treating cancer with same” (University Health Network, priority 2014, dated 2019)
